Experimental data as given in the supplement of paper PMC10307832.

Legend:
Experiment in all cases: relative viability (nuclei count vs DMSO), 5 days (fraction); higher = more cells survive
Selisistat + Crizotinib = compound: C1CC(C2=C(C1)C3=C(N2)C=CC(=C3)Cl)C(=O)N [Selisistat] + C[C@@H](Oc1cc(-c2cnn(C3CCNCC3)c2)cnc1N)c1c(Cl)ccc(F)c1Cl [Crizotinib] (partner 1 µM)
Method in brief: (§1)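 After 5 days of treatment, lung cancer cells in 1536-well plates were fixed and stained in a single step (final 0.05% Triton X-100, 1% formaldehyde, 1 ug/ml Hoechst) and their nuclei counted on 4× images. Treatment had been applied by pin tool the day after seeding as one drug alone or as a fixed anchor-drug dose with five library-drug doses (not always all listed) in √10 steps. Relative viability is the nuclei count of treated wells divided by that of vehicle wells, and values are medians of duplicate plates.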

Serdemetan + Navitoclax = compound: c1ccc2c(CCNc3ccc(Nc4ccncc4)cc3)c[nH]c2c1 [Serdemetan] + CC1(C)CCC(c2ccc(Cl)cc2)=C(CN2CCN(c3ccc(C(=O)NS(=O)(=O)c4ccc(N[C@H](CCN5CCOCC5)CSc5ccccc5)c(S(=O)(=O)C(F)(F)F)c4)cc3)CC2)C1 [Navitoclax] (partner 0.5 µM)
Method in brief: as §1

Serdemetan + Luminespib = compound: c1ccc2c(CCNc3ccc(Nc4ccncc4)cc3)c[nH]c2c1 [Serdemetan] + CCNC(=O)c1noc(-c2cc(C(C)C)c(O)cc2O)c1-c1ccc(CN2CCOCC2)cc1 [Luminespib] (partner 0.01 µM)
Method in brief: as §1

Serdemetan + Dasatinib = compound: c1ccc2c(CCNc3ccc(Nc4ccncc4)cc3)c[nH]c2c1 [Serdemetan] + Cc1nc(Nc2ncc(C(=O)Nc3c(C)cccc3Cl)s2)cc(N2CCN(CCO)CC2)n1 [Dasatinib] (partner 0.075 µM)
Method in brief: as §1

Cell Line	relative viability (Selisistat + Crizotinib; first compound 0.4 µM)	relative viability (Selisistat + Crizotinib; first compound 1.265 µM)	relative viability (Selisistat + Crizotinib; first compound 4 µM)	relative viability (Selisistat + Crizotinib; first compound 12.65 µM)	relative viability (Selisistat + Crizotinib; first compound 40 µM)	relative viability (Serdemetan + Navitoclax; first compound 0.04 µM)	relative viability (Serdemetan + Navitoclax; first compound 0.1265 µM)	relative viability (Serdemetan + Navitoclax; first compound 0.4 µM)	relative viability (Serdemetan + Navitoclax; first compound 1.265 µM)	relative viability (Serdemetan + Navitoclax; first compound 4 µM)	relative viability (Serdemetan + Luminespib; first compound 0.04 µM)	relative viability (Serdemetan + Luminespib; first compound 0.1265 µM)	relative viability (Serdemetan + Luminespib; first compound 0.4 µM)	relative viability (Serdemetan + Luminespib; first compound 1.265 µM)	relative viability (Serdemetan + Luminespib; first compound 4 µM)	relative viability (Serdemetan + Dasatinib; first compound 0.04 µM)	relative viability (Serdemetan + Dasatinib; first compound 0.1265 µM)	relative viability (Serdemetan + Dasatinib; first compound 0.4 µM)	relative viability (Serdemetan + Dasatinib; first compound 1.265 µM)	relative viability (Serdemetan + Dasatinib; first compound 4 µM)
LXF-289	0.853	0.803	0.786	0.709	0.805	0.931	0.927	0.884	0.759	0.749	0.636	0.706	0.625	0.517	0.401	0.231	0.197	0.199	0.202	0.185
NCI-H23	0.515	0.474		0.468	0.473	0.887	0.848	0.996	0.809	0.623	0.219	0.223	0.214	0.211	0.196	0.734	0.877	0.794	0.548	0.914
NCI-H322M	0.959	1.01		0.903	1.15	1.05	1.21	1.12	1.43	1.06	0.807	0.845	0.772	0.861	0.678	0.266	0.24	0.248	0.214	0.272
NCI-H441	0.754	0.652	0.915	0.673	0.806	0.424	0.654	0.87	0.87	0.317	0.381	0.298	0.321	0.316	0.325	0.69	0.649	0.516	0.585	0.435
NCI-H460	1.02	0.658		0.881	0.987	1.03	1.04	1.13	0.303	0.0983	0.0305	0.0294	0.0326	0.0303	0.0264	0.616	0.545	0.47	0.258	0.141
NCI-H520	0.743	0.714	0.873	0.742	0.796	1	1.09	1.07	0.762	0.924	0.255	0.204	0.232		0.205	0.244	0.182	0.223		0.198
NCI-H596	1.11	0.898	0.853	0.991	0.905	0.967	0.922	0.741	0.465	0.34	1.02	0.955	0.861	0.59	0.602	0.677	0.637	0.645	0.565	0.522
NCI-H647	1.16	1		1.01	0.948	1.06	1.14	1.06	0.844	0.83	0.272	0.185	0.176	0.123	0.112	0.217	0.153	0.156	0.184	0.167
NCI-H727	0.823	0.816			0.729	0.511	0.354	0.391	0.231	0.226	0.319	0.481	0.288	0.265	0.385	0.36	0.42	0.445	0.251	0.25
NCI-H838	0.819	0.841	0.888	0.759	0.801	1.11	1.14	1.08	1.12	1.32	0.266	0.319	0.383	0.2	0.328	0.291	0.345	0.272	0.276	0.273
NCI-H1355	1.01	1.08		1.08	1.21	1.01	0.863	0.944	0.915	0.78	0.671	0.667	0.609	0.353	0.449	0.78	0.759	0.601	0.602	0.76
NCI-H1437	0.855	0.885	0.977	0.865	0.792	1.06	1.01	0.99	0.98	0.754	1.11	1	1.06	1.02	0.788	0.347	0.352	0.388	0.274	0.289
NCI-H1650	1.09	0.966	0.909	0.899	0.955	1.02	1.19	1.19	1.18	0.722	0.212	0.213	0.205	0.177	0.184	0.297	0.345	0.272	0.34	0.268
NCI-H1651	0.866	0.893	0.907	0.802	0.855	0.826	0.808	0.557	0.256	0.226	0.714	0.591	0.457	0.473	0.273	0.296	0.319	0.281	0.237	0.186
NCI-H1666	1.12	0.871	0.788	0.835	0.618	0.913	0.941	0.877	0.726	0.83	1.01	0.992	1.05	0.869	0.811	0.797	0.736	0.829	0.597	0.663
NCI-H1734	0.696	0.606	0.714	0.761	0.648	0.68		0.202	0.108	0.188	0.198	0.24	0.196	0.15	0.186	0.384	0.371	0.402	0.117	0.131
